Measurements published in US6001880A, “Alkylenediamine derivative, anti-ulcer drug, and antibacterial drug” (Shiseido Co., Ltd., priority 1997, dated 1999).

Legend:
mice = system: mice; design: species or system mouse (male Slc:ICR); details: mouse, in vivo
Method: AT: Single Dose Toxicity Pretest
Male Slc:ICR mice (5-week-old) were used. Each group has 3 to 5 mice and each mouse was fasted, but allowed free access to water, for 4 to 5 hours from 9 a.m. in the test day. Then, 2,000 mg/10 ml/kg of the sample compound dissolved or suspended in an aqueous solution of 0.5% sodium carboxymethyl cellulose was orally administered thereto. To a control, only the vehicle was administered. […] The body weight was measured before and after the fasting as well as at the same time everyday. The dead animals were immediately subjected to autopsy and their organs were observed by naked eyes. Also, the living animals were sacrificed with ether or carbon dioxide one week after the administration and then their organs were observed by naked eyes.
The toxicity at the single dose of 2,000 mg/kg of the sample compound was expressed as being classified into 5 levels.
5: mortality rate is 0%; no toxicity is found at all both in behavior and organs.
4: Mortality rate is 0%; while no toxicity is found in organs, slight toxicity is observed in behavior or body weight increase.
3: While there is a dead animal (though not all the animals are dead), no toxicity is found in organs.
2: Regardless of whether there is a dead animal or not, toxicity is found in organs.
1: All the animals are dead.

[1] = system: isolated gastric fundic gland; assay: CAP: Acid Secretion Inhibition Test In Vitro ([14C]-aminopyrine uptake); type: cell-based, rabbit (male Japanese White); details: Oryctolagus cuniculus; final concentration 10^-5 M; histamine 10^-5 M stimulation; read-out: CAP: acid secretion inhibitory rate
In short: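 Collagenase-isolated rabbit gastric fundic glands (1.6×10^6 cells/ml) were stimulated with 10^-5 M histamine in the presence of test compound and [14C]-aminopyrine, then shaken 40 min at 37 °C. Pellet versus supernatant radioactivity, corrected with a 20 mM NaSCN sample, gives specific aminopyrine accumulation as the acid-secretion index; duplicates.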

Row | SMILES | AT: single dose toxicity level (mice) | inhibition at 10 µM [1] [%]
1 | CCN(CC)CCNC(=O)c1cc(OCC=C(C)C)cc(OCC=C(C)C)c1 [Example 14] | 5 | 100
2 | CCN(CC)CCNC(=O)c1cc(OC/C=C(\C)CCC=C(C)C)ccc1OC/C=C(\C)CCC=C(C)C [Example 16] | 5 | 100
3 | CC(C)=CCC/C(C)=C/COc1ccc(OC/C=C(\C)CCC=C(C)C)c(C(=O)NCCN(C(C)C)C(C)C)c1 [Example 17] | 5 | 100
4 | CCN(CC=C(C)C)c1ccc(C(=O)NCCN(C(C)C)C(C)C)cc1 [Example 28] | – | 27.3
5 | CCN(CC)CCNC(=O)c1cc(OC)c(OC/C=C(\C)CCC=C(C)C)c(OC)c1 [Example 37] | 4 | 99.3
6 | CCN(CC)CCNC(=O)c1cc(OC)c(OC/C=C(/C)CCC=C(C)C)c(OC)c1 [Example 38] | 5 | 99.8
7 | COc1cc(C(=O)NCCN(C)C)cc(OC/C=C(\C)CCC=C(C)C)c1OC [Example 42] | 3 | 98.6
